The target of the experiment is T1, 5-HT2B receptor (Homo sapiens, UniProt P41595).
T1 construct: host or cells: CHO-K1
The experiment is described as follows: 5-HT2B receptor binding, 3H-LSD ligand displacement assay. To be noted: for inhibition at 0.01 µM: 0.01 uM compound; for inhibition at 0.1 µM: 0.1 uM compound; for inhibition at 0.001 µM: 0.001 uM compound. Here is the method: 5-HT2B receptor binding (performed at Eurofins Panlabs Taiwan, Ltd.) to human receptor protein expressed in CHO-K1 cells was determined in a ligand displacement assay using ^3H-lysergic acid diethylamide (LSD) as radioligand and ketanserine as a standard reference compound. Data is presented as % displacement of radioligand at indicated compound concentrations, see Table 1 and Table 2.

Broadly, the inhibition is the change of the read-out against control, counted positive when it falls.

T1 sequence (P41595 whole entry): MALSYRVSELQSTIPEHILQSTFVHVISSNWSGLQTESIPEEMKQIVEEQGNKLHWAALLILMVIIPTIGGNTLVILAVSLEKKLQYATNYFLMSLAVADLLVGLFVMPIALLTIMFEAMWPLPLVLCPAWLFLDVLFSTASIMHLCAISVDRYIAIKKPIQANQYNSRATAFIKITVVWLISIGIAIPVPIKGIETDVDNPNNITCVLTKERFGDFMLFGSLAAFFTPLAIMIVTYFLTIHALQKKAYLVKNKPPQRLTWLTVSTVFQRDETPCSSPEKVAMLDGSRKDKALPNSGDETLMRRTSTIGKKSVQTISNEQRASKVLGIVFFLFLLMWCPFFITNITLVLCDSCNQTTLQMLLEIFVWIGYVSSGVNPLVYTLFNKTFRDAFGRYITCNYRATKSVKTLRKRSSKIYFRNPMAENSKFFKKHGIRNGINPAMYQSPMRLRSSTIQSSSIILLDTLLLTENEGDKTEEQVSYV

Consider `CC1CN(C(=N)N)N=C1c1cc(Cl)ccc1O` (stereo not drawn) [Example 52, 3-(5-Chloro-2-hydroxyphenyl)-4-methyl-4,5-dihydro-1H-pyrazole-1-carboximidamide], for which the inhibition at 0.01 µM turned out to be 34% and the inhibition at 0.1 µM turned out to be 72%. Moreover, the inhibition at 1 µM (1 uM compound) is 95%.
Regarding `CCCCCCNC(=N)N1CC(C)C(c2cccc(Cl)c2O)=N1` (stereo not drawn) [Example 81, 3-(3-Chloro-2-hydroxyphenyl)-N-hexyl-4-methyl-4,5-dihydro-1H-pyrazole-1-carboximidamide], the inhibition at 0.001 µM came to 62%, the inhibition at 0.01 µM amounted to 96% and the inhibition at 0.1 µM came out at 97%.
For the compound `CC1CN(C(=N)N[C@H](C)c2ccccc2)N=C1c1ccccc1O` (stereo partly drawn) [Example 63, 3-(2-Hydroxyphenyl)-4-methyl-N—((R)-1-phenylethyl)-4,5-dihydro-1H-pyrazole-1-carboximidamide], the inhibition at 0.001 µM stood at 36% and the inhibition at 0.01 µM stood at 81%.
In the case of `CC1CN(C(=N)Nc2ccc(C(F)(F)F)cc2)N=C1c1ccccc1O` (stereo not drawn) [Example 99, 3-(2-Hydroxyphenyl)-4-methyl-N-(4-(trifluoromethyl)phenyl)-4,5-dihydro-1H-pyrazole-1-carboximidamide], the inhibition at 0.001 µM was 48%, the inhibition at 0.01 µM is 89% and the inhibition at 0.1 µM was 103%.
For `COc1ccc(C2=NN(C(=N)N)CC2C)c(OC)c1` (stereo not drawn) [Example 66, 3-(2,4-Dimethoxyphenyl)-4-methyl-4,5-dihydro-1H-pyrazole-1-carboximidamide], the inhibition at 0.01 µM came to 5% and the inhibition at 0.1 µM stood at 12%. Moreover, for the setting “1 uM compound”, the inhibition at 1 µM was found to be 41%.
With `COc1c(Cl)cccc1C1=NN(C(=N)N)CC1C` (stereo not drawn) [Example 53, 3-(3-Chloro-2-methoxyphenyl)-4-methyl-4,5-dihydro-1H-pyrazole-1-carboximidamide], the inhibition at 0.01 µM was 40% and the inhibition at 0.1 µM came to 87%. Moreover, the inhibition at 1 µM (1 uM compound) was found to be 100%.
Consider `CC1CN(C(=N)NC2CC2)N=C1c1cccc(Cl)c1O` (stereo not drawn) [Example 87, 3-(3-Chloro-2-hydroxyphenyl)-N-cyclopropyl-4-methyl-4,5-dihydro-1H-pyrazole-1-carboximidamide], for which the inhibition at 0.001 µM was found to be 24%, the inhibition at 0.01 µM came to 84% and the inhibition at 0.1 µM was found to be 100%.
With `N=C(N)N1CCC(c2c(O)cccc2Cl)=N1` [Example 34, 3-(2-Chloro-6-hydroxyphenyl)-4,5-dihydro-1H-pyrazole-1-carboximidamide], the inhibition at 0.1 µM was 23%. Moreover, where the note is “1 uM compound”, the inhibition at 1 µM was 52%.
On to `CC1CN(C(=N)N)N=C1c1ccc(F)cc1O` (stereo not drawn) [Example 50, 3-(4-Fluoro-2-hydroxyphenyl)-4-methyl-4,5-dihydro-1H-pyrazole-1-carboximidamide], for which the inhibition at 0.01 µM stood at 42% and the inhibition at 0.1 µM worked out at 87%. For the setting “1 uM compound”, the inhibition at 1 µM worked out at 96%.
As for `N=C(N)N1CCC(c2ccccc2Br)=N1` [Example 4, 3-(2-Bromophenyl)-4,5-dihydro-1H-pyrazole-1-carboximidamide], the inhibition at 1 µM (1 uM compound) was determined as 89%. For the same compound, the inhibition at 10 µM (10 uM compound) was found to be 101%.
With `N=C(N)N1CCC(c2ccccc2Cl)=N1` [Example 5, 3-(2-Chlorophenyl)-4,5-dihydro-1H-pyrazole-1-carboximidamide], for the setting “1 uM compound”, the inhibition at 1 µM was 95%. For the same compound, for the setting “10 uM compound”, the inhibition at 10 µM was found to be 100%.
Turning to `CC1CN(C(=N)Nc2ccc(C(F)(F)F)cc2)N=C1c1cccc(Cl)c1O` (stereo not drawn) [Example 113, 3-(3-Chloro-2-hydroxyphenyl)-4-methyl-N-(4-(trifluoromethyl)phenyl)-4,5-dihydro-1H-pyrazole-1-carboximidamide], the inhibition at 0.001 µM came to 59%, the inhibition at 0.01 µM was determined as 95% and the inhibition at 0.1 µM was 99%.
The like results for `CC1CN(C(=N)NC#N)N=C1c1cccc(Cl)c1O` (stereo not drawn) [Example 91, 3-(3-Chloro-2-hydroxyphenyl)-N-cyano-4-methyl-4,5-dihydro-1H-pyrazole-1-carboximidamide] were, in that order, -15%, 27% and 74%.
With `C[C@H]1CN(C(=N)N)N=C1c1cccc(Cl)c1O` (single isomer, unassigned) [Example 72, (S)*-3-(3-chloro-2-hydroxyphenyl)-4-methyl-4,5-dihydro-1H-pyrazole-1-carboximidamide], the inhibition at 0.001 µM was -1%, the inhibition at 0.01 µM is 21% and the inhibition at 0.1 µM was found to be 69%.
In the case of “(R)-3-(2-Hydroxyphenyl)-4-methyl-4,5-dihydro-1H-pyrazole-1-carboximidamide [Example 36]”, the “5-HT2B receptor binding (% displacement)” value (1 uM compound) was determined as 90% and the “5-HT2B receptor binding (% displacement)” value (10 uM compound) came to 99%.
For `Cc1ccccc1C1=NN(C(=N)N)CC1` [Example 6, 3-(2-Methylphenyl)-4,5-dihydro-1H-pyrazole-1-carboximidamide], the inhibition at 1 µM (1 uM compound) was 89%. Moreover, the inhibition at 10 µM (10 uM compound) worked out at 99%.
In the case of `COc1c(Cl)cccc1C1=NN(C(=N)NC2CCCCC2)CC1C` (stereo not drawn) [Example 84, 3-(3-Chloro-2-methoxyphenyl)-N-cyclohexyl-4-methyl-4,5-dihydro-1H-pyrazole-1-carboximidamide], the inhibition at 0.001 µM was 11%, the inhibition at 0.01 µM was 63% and the inhibition at 0.1 µM came out at 94%.
In the same order, the values of `COc1c(Cl)cccc1C1=NN(C(=N)NC2CC2)CC1C` (stereo not drawn) [Example 86, 3-(3-Chloro-2-methoxyphenyl)-N-cyclopropyl-4-methyl-4,5-dihydro-1H-pyrazole-1-carboximidamide] are -14%, 29% and 83%.
As to `COc1ccc(NC(=N)N2CC(C)C(c3ccccc3OCc3ccccc3)=N2)cc1` (stereo not drawn) [Example 104, 3-(2-(Benzyloxy)phenyl)-N-(4-methoxyphenyl)-4-methyl-4,5-dihydro-1H-pyrazole-1-carboximidamide], the inhibition at 0.001 µM was -9%, the inhibition at 0.01 µM came to 33% and the inhibition at 0.1 µM turned out to be 77%.
Regarding `COc1ccc(CNC(=N)N2CC(C)C(c3ccccc3O)=N2)cc1OC` (stereo not drawn) [Example 60, N-(3,4-Dimethoxybenzyl)-3-(2-hydroxyphenyl)-4-methyl-4,5-dihydro-1H-pyrazole-1-carboximidamide], the inhibition at 0.001 µM worked out at 6% and the inhibition at 0.01 µM amounted to 28%.
As for `CC1CN(C(=N)NCC(F)(F)C(F)(F)C(F)(F)F)N=C1c1cccc(Cl)c1O` (stereo not drawn) [Example 107, 3-(3-Chloro-2-hydroxyphenyl)-N-(2,2,3,3,4,4,4-heptafluorobutyl)-4-methyl-4,5-dihydro-1H-pyrazole-1-carboximidamide], the inhibition at 0.001 µM is 51%, the inhibition at 0.01 µM was found to be 91% and the inhibition at 0.1 µM came out at 100%.
Take `CC1CC(c2ccccc2Cl)=NN1C(=N)N` (stereo not drawn) [Example 25, 3-(2-Chlorophenyl)-5-methyl-4,5-dihydro-1H-pyrazole-1-carboximidamide]: the inhibition at 0.1 µM worked out at 54%. Further, the inhibition at 1 µM (1 uM compound) stood at 91%.
For `N=C(N)N1CCC(c2ccccc2N)=N1` [Example 31, 3-(2-Aminophenyl)-4,5-dihydro-1H-pyrazole-1-carboximidamide], the inhibition at 0.1 µM was 21%. Further, the inhibition at 1 µM (1 uM compound) is 69%.

The values above are taken from patent US10544103B2, “5-HT2 antagonists” (ANAMAR AB, priority 2015, dated 2020).
